Source: US5554378A, “Pharmaceutical composition and its mucosal use” (Takeda Chemical Industries, Ltd., priority 1990, dated 1996)

What was measured:
[1] = Blood glucose after intranasal delivery of insulin to rats; format: in vivo, Male SD rats; conditions: for Glucose (% relative to glucose level before administration): intranasal, insulin 10 U/kg, mean ± SE, n = 5 (SE in parentheses)
Method: (§1) Male SD rats (5 per group) weighing about 220 g were fasted for 16 hours. Under pentobarbital anaesthesia, the animals were prepared for intranasal therapy according to the procedure described in International Journal of Pharmaceutics 7, 317 (1981). Then, using a micropipet, 0.1 ml/kg of an insulin solution was directly administered into the nasal cavity and the blood was serially sampled from the tail vein for determination of blood glucose and insulin concentrations.
(§2) As said insulin solution, a solution of 10U of porcine insulin (about 0.38 mg) and 0 mg-5 mg of LThB (corresponding to 5%) in 0.1 ml of isotonic buffer (pH 7.4) was used.
(§3) Insulin dose: 10 U/Kg, SD rats, 7W, .male., 220 g
*% relative to glucose level before administration (mean ± SE, n = 5)

[2] = Plasma insulin level (EIA, GLAZYME Kit) after intranasal delivery of insulin to rats; format: in vivo, Male SD rats; conditions: for Insulin (plasma insulin level): insulin 10 U/kg
Method: as §1, §2, §3
Plasma insulin level: EIA (GLAZYME Kit, Wako)

| Substance | Blood glucose level on addition of LThB, compared with the control (without LThB) ([1]; intranasal with insulin, vs control without LThB) | Insulin (plasma insulin level) ([2]; 0.5 hr) [μU/ml] | Insulin (plasma insulin level) ([2]; 1.0 hr) [μU/ml] | Insulin (plasma insulin level) ([2]; 1.5 hr) [μU/ml] | Insulin (plasma insulin level) ([2]; 2.0 hr) [μU/ml] | Insulin (plasma insulin level) ([2]; 3.0 hr) [μU/ml] | Insulin (plasma insulin level) ([2]; 4.0 hr) [μU/ml] | Absorption of insulin from the nasal mucosa (blood insulin concentration) ([2]; with addition of LThB) | Glucose (% relative to glucose level before administration) ([1]; 0.5 hr) | Glucose (% relative to glucose level before administration) ([1]; 1.0 hr) | Glucose (% relative to glucose level before administration) ([1]; 1.5 hr) | Glucose (% relative to glucose level before administration) ([1]; 2.0 hr) | Glucose (% relative to glucose level before administration) ([1]; 3.0 hr) | Glucose (% relative to glucose level before administration) ([1]; 4.0 hr) |
| --- | --- | --- | --- | --- | --- | --- | --- | --- | --- | --- | --- | --- | --- | --- |
| LThB | marked fall of blood glucose level | – | – | – | – | – | – | – | – | – | – | – | – | – |
| insulin, No addition: 10U of porcine insulin (about 0.38 mg) in 0.1 ml of isotonic buffer (pH 7.4), without LThB | – | 0.83 | 0.0 | 0.0 | 0.0 | 4.51 | 0.0 | effectively absorbed from the nasal mucosa | 135.9 (10.5) % | 141.7 (8.6) % | 133.4 (11.2) % | 127.3 (9.1) % | 132.9 (11.4) % | 136.3 (13.5) % |
